US20070037752A1, “Novel alanyl-amino peptidase inhibitors for functionally influencing different cells and treating immunological, inflammatory, neuronal, and other diseases” (priority 2003, published 2007)
Like-named read-outs stand apart in the source and are kept apart here.

Biological target: alanyl aminopeptidases (APN) (Homo sapiens, UniProt P15144)
Test: Inhibition of alanyl aminopeptidase enzymatic activity, fluorogenic substrate (Ala)2-rhodamine 110
Assay type: biochemical
Description: The inhibition characteristics measured are referred to as IC-50 values or ID50 values (the latter marked with “*”) for said enzyme. The enzymatic activity was determined by means of the fluorogenic substrate/product (Ala)2-rhodamine 110.

[1] = Table 3, starred values = ID50, read-out: ID50 APN (values marked with *)
[2] = Table 3, unstarred values, read-out: IC50APN

Sequence of alanyl aminopeptidases (APN) (P15144 whole entry, species assumed): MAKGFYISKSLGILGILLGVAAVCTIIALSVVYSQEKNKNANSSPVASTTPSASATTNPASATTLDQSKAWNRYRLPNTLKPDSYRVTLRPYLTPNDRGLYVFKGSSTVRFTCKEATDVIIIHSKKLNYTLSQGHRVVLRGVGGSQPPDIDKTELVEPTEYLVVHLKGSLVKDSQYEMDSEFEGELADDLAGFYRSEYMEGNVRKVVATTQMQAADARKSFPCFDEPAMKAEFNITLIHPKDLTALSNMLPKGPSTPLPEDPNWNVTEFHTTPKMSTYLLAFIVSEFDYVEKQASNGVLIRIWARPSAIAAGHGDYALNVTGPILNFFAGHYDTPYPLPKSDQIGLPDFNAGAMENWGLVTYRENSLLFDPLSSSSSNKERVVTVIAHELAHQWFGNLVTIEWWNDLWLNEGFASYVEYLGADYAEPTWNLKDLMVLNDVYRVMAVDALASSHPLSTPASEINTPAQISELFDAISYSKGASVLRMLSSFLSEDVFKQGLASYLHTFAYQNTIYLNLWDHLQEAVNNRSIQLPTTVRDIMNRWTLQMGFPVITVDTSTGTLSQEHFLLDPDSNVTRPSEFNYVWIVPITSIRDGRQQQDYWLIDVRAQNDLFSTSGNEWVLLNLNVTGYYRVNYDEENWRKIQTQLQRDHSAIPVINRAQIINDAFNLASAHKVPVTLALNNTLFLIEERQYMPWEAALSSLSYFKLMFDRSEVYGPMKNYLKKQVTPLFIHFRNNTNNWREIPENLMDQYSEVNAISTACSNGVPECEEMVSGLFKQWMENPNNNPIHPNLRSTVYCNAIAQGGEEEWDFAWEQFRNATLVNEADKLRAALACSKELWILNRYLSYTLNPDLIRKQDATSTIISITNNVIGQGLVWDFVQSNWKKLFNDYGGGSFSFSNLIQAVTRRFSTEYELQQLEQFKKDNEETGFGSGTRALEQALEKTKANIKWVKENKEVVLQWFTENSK

Row | SMILES | IC50 [1] [µM] | IC50 [2] [µM]
1 | O=C1C(Cc2ccc(O)cc2)NC(=S)N1Cc1ccccc1 (stereo not shown) [A3.145] | 23.7 | 
2 | CCCOC(=O)c1cc(-c2ccc(/C=C3\C(=O)N(CCCO)C(=O)C(C#N)=C3C)o2)ccc1Cl [A3.146] |  | 23.8
3 | O=C1/C(=C/C=C/c2ccco2)CCC/C1=C\C=C\c1ccco1 [A3.147] |  | 24.4
4 | O=C(N/N=C\c1ccco1)c1ccc(Br)cc1 [A3.148] |  | 24.5
5 | Cc1ccc(/C=C/C(=O)Nc2ccc(S(=O)(=O)N3CCCC3)cc2)o1 [A3.149] |  | 24.8
6 | Cc1ccc(C)n1-c1cccc(C(=O)N/N=C/c2cc(Br)c(O)c(Br)c2)c1 [A3.150] |  | 24.9
7 | O=C1C(Cc2ccccc2)NC(=S)N1c1ccccc1 (stereo not shown) [A3.151] |  | 26.1
8 | COc1cc(/C=N/NC(=O)/C(=C/c2cccs2)NC(=O)c2ccccc2)cc([N+](=O)[O-])c1O [A3.152] |  | 25.1
9 | CCc1ccc(OCC(=O)N/N=C\c2ccco2)c([N+](=O)[O-])c1 [A3.153] |  | 25.1
10 | O=C(N/C(=C\c1ccco1)C(=O)N1CCOCC1)c1ccccc1Cl [A3.154] |  | 25.5
11 | CCOc1ccc(Br)cc1C(=O)N/N=C/c1ccco1 [A3.155] |  | 25.8
12 | O=C(N/N=C/c1ccco1)c1cccc(NC(=O)c2ccc(F)cc2)c1 [A3.156] |  | 25.9
13 | Cn1c(=O)[nH]c2nnc(-c3cccs3)nc2c1=O [A3.157] |  | 26.1
14 | O=C(CCCOc1ccc(Cl)cc1Cl)N/N=C/c1ccco1 [A3.158] |  | 26.3
15 | Cc1ccc(/C=N/NC2=NC(=O)CS2)o1 [A3.159] |  | 22.6
16 | Cc1ccc(/C=N/NC(=O)c2cc(O)cc(O)c2)o1 [A3.160] |  | 26.4
17 | O=C1CNC(c2cccc([N+](=O)[O-])c2)N1O (stereo not shown) [A3.161] |  | 26.4
18 | COc1ccc(C2(CNC(=O)/C=C/c3ccco3)CCCC2)cc1OC [A3.162] |  | 26.6
19 | Cc1ccc(/C=N/NC(=O)c2nnn(-c3nonc3N)c2CN2CCOCC2)o1 [A3.163] |  | 26.7
20 | CCCCCC(=O)N/N=C/c1ccco1 [A3.164] |  | 26.7
21 | CCCOc1ccc(/C=C(\NC(=O)c2ccccc2)C(=O)N/N=C/c2ccco2)cc1 [A3.165] |  | 27.3
22 | O=C(/C=C/c1ccco1)c1ccccc1 [A3.166] |  | 27.3

Row | SMILES | IC50 [1] [µM] | IC50 [2] [µM]
23 | Cc1nn(-c2ccccc2)c(C)c1-c1cc(C(=O)N/N=C/c2ccco2)[nH]n1 [A3.167] |  | 27.4
24 | CC(/C=N/NC(=O)c1ccco1)=C\c1ccco1 [A3.168] |  | 27.5
25 | CC1SC(N/N=C/c2ccco2)=NC1=O (stereo not shown) [A3.169] |  | 27.7
26 | Cc1ccc(Cn2c(SCCC(=O)O)nc3c2c(=O)n(C)c(=O)n3C)cc1 [A3.170] |  | 28
27 | O=C(Cc1cccs1)N/N=C/C=C\c1ccco1 [A3.171] |  | 28
28 | COC(=O)c1ccccc1-c1ccc(/C=C2\C(=O)N(C)C(=O)C(C#N)=C2C)o1 [A3.172] |  | 28.1
29 | CC(/C=C/c1ccco1)=N\NC(=O)CNc1ccc2ccccc2c1 [A3.173] |  | 28.5
30 | C/C(=N\N=C1\SC(CC(=O)O)C(=O)N1c1ccccc1)c1ccco1 (stereo not shown) [A3.174] |  | 28.6
31 | CC1=C(C#N)C(=O)N(CC(C)O)C(=O)/C1=C/c1ccc(-c2cccc(Cl)c2C)o1 (stereo not shown) [A3.175] |  | 28.6
32 | C(=C\c1ccco1)/c1nc2ccccc2[nH]1 [A3.176] |  | 28.7
33 | COc1ccccc1-n1c(CCC(=O)O)ccc1-c1cccs1 [A3.177] |  | 28.7
34 | Cc1ccc(C(=O)N/C(=C\c2ccco2)C(=O)N2CCOCC2)cc1C [A3.178] |  | 28.8
35 | O=C(C1c2ccccc2Oc2ccccc21)n1cc(Cl)cn1 [A3.179] |  | 29.1
36 | C=CCN1C(=O)C(C#N)=C(C)/C(=C\c2ccc(-c3cc(C)c(C)cc3[N+](=O)[O-])o2)C1=O [A3.180] |  | 29.3
37 | COc1ccc(/C(C)=N/NC(=O)CNC(=O)/C=C\c2ccco2)cc1 [A3.181] |  | 29.4
38 | O=C(N/N=C/c1ccco1)c1cccc(NC(=O)c2ccccc2)c1 [A3.182] |  | 29.5
39 | CC(=O)Nc1ccc(C(=O)N/N=C/c2ccc(C)o2)cc1 [A3.183] |  | 29.7
40 | Cc1ccc(/C=N/NC(=O)c2cccc(I)c2)o1 [A3.184] |  | 30
41 | O=C(N/N=C\c1ccco1)c1cnccn1 [A3.185] |  | 30.1
42 | O=C(N/N=C/C=C\c1ccco1)c1ccoc1 [A3.186] |  | 30.1
43 | CC1=C(C#N)C(=O)N=C(O)/C1=C\c1ccc(-c2ccc(Cl)cc2Cl)o1 [A3.187] |  | 30.3
44 | NC(=O)C1CCN(C(=O)/C(=C/c2ccco2)NC(=O)c2ccccc2)CC1 [A3.188] |  | 30.5

Row | SMILES | IC50 [1] [µM] | IC50 [2] [µM]
45 | Cc1cccc(C)c1NC1C(c2ccccc2NC(=O)Nc2ccc(OC(F)(F)F)cc2)N=C2C(C(=O)NCC(C)C)=CC=CN21 (stereo not shown) [A3.190] |  | 31.1
46 | Cc1cc(C(=O)N/N=C/c2ccc(C)o2)[nH]n1 [A3.191] |  | 31.8
47 | O=C(CNC(=O)c1ccccc1Br)N/N=C/c1ccoc1 [A3.192] |  | 31.9
48 | CCCOC(=O)c1cc(-c2ccc(/C=C3/C(=O)N(CC(C)O)C(=O)C(C#N)=C3C)o2)ccc1Cl (stereo not shown) [A3.193] |  | 32
49 | Cc1ccc(C(=O)N/C(=C\c2ccco2)C(=O)N2CCCN(C)CC2)cc1C [A3.194] |  | 32.1
50 | Nc1nc2nc(-c3ccco3)cc(C(F)(F)F)n2n1 [A3.195] |  | 32.1
51 | O=C(CC(=O)N/N=C/c1ccco1)N/N=C/c1ccco1 [A3.196] |  | 32.4
52 | CC1=C(C#N)C(O)=NC(=O)/C1=C/c1ccc(-c2ccc(Cl)cc2Cl)o1 [A3.197] |  | 32.4
53 | Cc1ccc(C(=O)N/C(=C/c2ccco2)C(=O)N(C)C)cc1 [A3.198] |  | 32.5
54 | O=C(N/N=C/c1ccco1)c1ccc(NC(=O)c2ccccc2Cl)cc1 [A3.199] |  | 32.5
55 | CC(=O)N1CCOC1(C)c1ccc([N+](=O)[O-])cc1 (stereo not shown) [A3.200] |  | 32.8
56 | CCOc1ccc(-c2cc(C(=O)N/N=C/c3ccco3)[nH]n2)cc1OC [A3.201] |  | 33.4
57 | CCOC(=O)C1=C(N)NC2=C(CCCC2)C12C(=O)Nc1ccccc12 (stereo not shown) [A3.202] |  | 33.6
58 | Cc1cccc(C(=O)Nc2ccc(C(=O)N/N=C/c3ccc4c(c3)OCO4)cc2)c1 [A3.203] | 33.8 | 
59 | Cc1ccccc1NC(=O)C1C(c2cccs2)C(C#N)=C(SCC(=O)Nc2ccc(Br)cc2)NC1(C)O (stereo not shown) [A3.204] |  | 33.9
60 | CC(C)C1N=C(Cc2cccnc2)N(CCCN2CCCC2=O)C1C(=O)NCc1ccccc1 (stereo not shown) [A3.205] |  | 34
61 | O=C(CCC(=O)Nc1cccc(Cl)c1)N/N=C/c1ccco1 [A3.206] |  | 34
62 | Cc1ccc(/C=N/NC(=O)c2ccc(F)cc2)o1 [A3.207] |  | 34.4
63 | CCOC(=O)C1CCN(C(=O)/C(=C/c2ccco2)NC(=O)c2ccc(C)c(C)c2)CC1 [A3.209] |  | 34.5
64 | O=C(Nc1ccccc1C(=O)N/N=C/c1ccco1)c1ccccc1Cl [A3.210] |  | 34.7
65 | COc1ccccc1C(=O)N/N=C/c1ccc(C)o1 [A3.211] |  | 34.7
66 | O=C(N/N=C/c1ccco1)c1cccc(I)c1 [A3.212] |  | 34.7

Row | SMILES | IC50 [1] [µM] | IC50 [2] [µM]
67 | CSc1nnc2n(/N=C/c3ccco3)cnn12 [A3.213] |  | 34.7
68 | CC(=O)n1cc(/C=C/C=N/NC(=O)CC#N)c2ccccc21 [A3.214] |  | 35.5
69 | COc1ccc(C2NCCS2)cc1Br (stereo not shown) [A3.215] |  | 35.7
70 | COc1cc(-c2cc(C(=O)N/N=C/c3ccco3)[nH]n2)ccc1OC(C)C [A3.216a] |  | 36.1
71 | Cc1cccc(C(=O)Nc2cccc(C(=O)N/N=C/c3ccc(C)o3)c2)c1 [A3.216b] |  | 36.2
72 | COc1cc(Br)ccc1OCC(=O)N/N=C(C)/C=C/c1ccco1 [A3.217] |  | 36.3
73 | Cc1ccc(OCC(=O)N/N=C/c2ccco2)cc1C [A3.218] |  | 36.3
74 | CC(/C=N/NC(=O)C(O)c1ccccc1)=C\c1ccco1 (stereo not shown) [A3.219] |  | 36.3
75 | Cc1c(Cl)cccc1NC(=O)CCC(=O)N/N=C/c1ccco1 [A3.220] |  | 36.6
76 | CCCOC(=O)c1cc(-c2ccc(/C=C3\C(=O)NC(=O)C(C#N)=C3C)o2)ccc1Cl [A3.221] |  | 36.8
77 | O=[N+]([O-])c1ncn(CN2CCOCC2)n1 [A3.222] |  | 36.6
78 | O=C1C(Cc2ccc3[nH]ccc3c2)NC(=S)N1c1ccccc1 (stereo not shown) [A3.223] |  | 36.9
79 | CC1CCN(S(=O)(=O)c2ccc3c(c2)C(Cl)(Cl)C(=O)N3)CC1 [A3.224] |  | 37.2
80 | O=C(Nc1ccc(F)cc1)c1ccc([NH+]([O-])O)o1 (stereo not shown) [A3.226] |  | 37.4
81 | O=C(N/N=C/c1ccco1)c1ccccc1 [A3.227] |  | 37.7
82 | COc1ccc2ccccc2c1-c1cc(C(=O)N/N=C(\C)c2ccco2)[nH]n1 [A3.228] |  | 38.2
83 | O=C(N/N=C/c1ccco1)c1ccc(O)cc1O [A3.229] |  | 38.3
84 | CC(=O)Nc1ccc(C(=O)N/N=C/c2ccco2)cc1 [A3.230] |  | 38.4
85 | O=C(OCC1CCCO1)c1cc([N+](=O)[O-])cc([N+](=O)[O-])c1 (stereo not shown) [A3.231] |  | 39.3
86 | O=C(N/N=C/c1ccco1)c1ccn[nH]1 [A3.232] |  | 40.3
87 | CCOC(=O)c1cc(-c2ccc(/C=C3\C(=O)N(CCCO)C(=O)C(C#N)=C3C)o2)ccc1Cl [A3.233] |  | 41
88 | O=C(CCC(=O)Nc1ccccc1)N/N=C/c1ccco1 [A3.234] |  | 41.1
